Patent publication US10023565B2, “N,N′ substituted piperidinamine compounds, and preparation method and usage thereof” (Institute of Pharmacology and Toxicology Academy of …, priority 2013, dated 2018)

How the values were obtained:
BT/Lap^R1.0 = assay: Antitumor bioactivity evaluation, breast cancer cells (ATPlite); assay type: cell-based, human; details: Homo sapiens
In short: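 Cells seeded at 5000/well and allowed to adhere 24 h at 37 °C, then treated with compound at 5 μM final, alone or combined with lapatinib at 1 μM final, for 72 h at 37 °C. ATPlite luminescence was read; survival (%) = treated RLU/vehicle-control RLU ×100.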

A549 = assay: Extended test against tumor cell lines (ATPlite); assay type: cell-based; details: A549 (lung cancer), 72 hours
Description: (§1) The compounds of Examples 36/37/40/47/49 were used to carry out extended test against tumor cell lines, wherein 12 kinds of cells were selected, including liver cancer cells, gastric cancer cells, pancreatic cancer cells, colorectal cancer cells, lung cancer cells and normal cells, which were shown in Table 12:
(§2) A 100 mm culture dish with overgrown adherent cells was digested with 1 ml 0.25% trypsin (GIBCO) at 37° C. for 5 min, and the reaction was terminated with 2 ml culture medium (containing 10% FBS, GIBCO). The cells were scattered and collected, after counting, diluted to 1×10^5 cells/ml, and seeded into a 96-well plate at 50 μl/well, 5000 cells/well, excluding the peripheral circle of wells in which no cell was added, but PBS was added, 54 wells in total, and then incubated at 37° C. for 24 hours for adhering.
(§3) The test sample was diluted to final concentration of 4, 1, 0.25, 0.063, 0.016 μM, culture medium was filled in control well, 3 parellel wells were set for each concentration, 50 μl each well, followed by incubation at 37° C. for 72 hours.
(§4) 3) Test after incubation at 37° C. for 72 hours: 50 μL of ATPlite kitsubstrate solution was added in each well, and vibrated for 3 min, followed by placing aside in darkness for 10 min, and then supernatant 100 μl/well was taken and placed on a luminescence test plate; the luminescence test plate that has been fully incubated was placed in a luminescence test instrument, to read luminescence value.
(§5) Cell survival rate (%)=Experimental group RLU/control group RLU×100%. The experimental data were subjected to data analysis and processing by utilizing GraphPad software.

AsPC-1 = assay: Extended test against tumor cell lines (ATPlite); assay type: cell-based; details: AsPC-1 (pancreatic cancer), 72 hours
Description: as §1, §2, §3, §4, §5

BGC823 = assay: Extended test against tumor cell lines (ATPlite); assay type: cell-based; details: BGC823 (gastric cancer), 72 hours
Description: as §1, §2, §3, §4, §5

COLO205 = assay: Extended test against tumor cell lines (ATPlite); assay type: cell-based; details: COLO205 (colorectal cancer), 72 hours
Description: as §1, §2, §3, §4, §5

H460 = assay: Extended test against tumor cell lines (ATPlite); assay type: cell-based; details: H460 (lung cancer), 72 hours
Description: as §1, §2, §3, §4, §5

HT-29 = assay: Extended test against tumor cell lines (ATPlite); assay type: cell-based; details: HT-29 (colorectal cancer), 72 hours
Description: as §1, §2, §3, §4, §5

HepG2 = assay: Extended test against tumor cell lines (ATPlite); assay type: cell-based; details: HepG2 (liver cancer), 72 hours
Description: as §1, §2, §3, §4, §5

Huh-7 = assay: Extended test against tumor cell lines (ATPlite); assay type: cell-based; details: Huh-7 (liver cancer), 72 hours
Description: as §1, §2, §3, §4, §5

MIA-PaCa-2 = assay: Extended test against tumor cell lines (ATPlite); assay type: cell-based; details: MIA-PaCa-2 (pancreatic cancer), 72 hours
Description: as §1, §2, §3, §4, §5

[1] = system: MRC5 (lung epithelial fibroblast); assay: Extended test against tumor cell lines (ATPlite); assay type: cell-based; details: MRC5 (normal cells), 72 hours
Description: as §1, §2, §3, §4, §5

N87 = assay: Extended test against tumor cell lines (ATPlite); assay type: cell-based; details: N87 (gastric cancer), 72 hours
Description: as §1, §2, §3, §4, §5

[2] = system: WI-38 (human embryonic lung fibroblast); assay: Extended test against tumor cell lines (ATPlite); assay type: cell-based; details: WI-38 (normal cells), 72 hours
Description: as §1, §2, §3, §4, §5

SMILES: CSc1nccc(N2CCC(N(C)Cc3c(F)cccc3Cl)CC2)n1 [Example 37, N-methyl-N-(2-fluoro-6-chlorobenzyl)-N-[1-(2-methylthiopyrimidin-4-yl)piperidin-4-yl]amine]
- IC50 (BT/Lap^R1.0): 940 nM
- inhibition at 5 µM (BT/Lap^R1.0; test sample 5 μM, 72 hours, read-out: Inhibitory Rate % BT/Lap^R1.0): 70.7%
- Survival rate (A549; 0.016 μM): 99.5%
- Survival rate (A549; 0.063 μM): 98.5%
- Survival rate (A549; 0.25 μM): 97.6%
- Survival rate (A549; 1 μM): 73%
- Survival rate (A549; 4 μM): 39.5%
- Survival rate (AsPC-1; 0.016 μM): 98.8%
- Survival rate (AsPC-1; 0.063 μM): 99.5%
- Survival rate (AsPC-1; 0.25 μM): 94.1%
- Survival rate (AsPC-1; 1 μM): 81.7%
- Survival rate (AsPC-1; 4 μM): 52.3%
- Survival rate (BGC823; 0.016 μM): 97.6%
- Survival rate (BGC823; 0.063 μM): 97.2%
- Survival rate (BGC823; 0.25 μM): 90.2%
- Survival rate (BGC823; 1 μM): 59.7%
- Survival rate (BGC823; 4 μM): 21%
- Survival rate (COLO205; 0.016 μM): 100.1%
- Survival rate (COLO205; 0.063 μM): 97.5%
- Survival rate (COLO205; 0.25 μM): 100.4%
- Survival rate (COLO205; 1 μM): 94.5%
- Survival rate (COLO205; 4 μM): 12.9%
- Survival rate (H460; 0.016 μM): 97.7%
- Survival rate (H460; 0.063 μM): 97.9%
- Survival rate (H460; 0.25 μM): 92.3%
- Survival rate (H460; 1 μM): 63.1%
- Survival rate (H460; 4 μM): 22%
- Survival rate (HT-29; 0.016 μM): 99.3%
- Survival rate (HT-29; 0.063 μM): 97.4%
- Survival rate (HT-29; 0.25 μM): 94.4%
- Survival rate (HT-29; 1 μM): 82.1%
- Survival rate (HT-29; 4 μM): 33.8%
- Survival rate (HepG2; 0.016 μM): 97.1%
- Survival rate (HepG2; 0.063 μM): 92.3%
- Survival rate (HepG2; 0.25 μM): 78.1%
- Survival rate (HepG2; 1 μM): 45.7%
- Survival rate (HepG2; 4 μM): 5.6%
- Survival rate (Huh-7; 0.016 μM): 91.9%
- Survival rate (Huh-7; 0.063 μM): 86.7%
- Survival rate (Huh-7; 0.25 μM): 82.3%
- Survival rate (Huh-7; 1 μM): 46.7%
- Survival rate (Huh-7; 4 μM): 14.9%
- Survival rate (MIA-PaCa-2; 0.016 μM): 97.6%
- Survival rate (MIA-PaCa-2; 0.063 μM): 97.5%
- Survival rate (MIA-PaCa-2; 0.25 μM): 91.5%
- Survival rate (MIA-PaCa-2; 1 μM): 61.9%
- Survival rate (MIA-PaCa-2; 4 μM): 16%
- Survival rate ([1]; 0.016 μM): 97.3%
- Survival rate ([1]; 0.063 μM): 99.5%
- Survival rate ([1]; 0.25 μM): 93.5%
- Survival rate ([1]; 1 μM): 90.4%
- Survival rate ([1]; 4 μM): 65.3%
- Survival rate (N87; 0.016 μM): 98.9%
- Survival rate (N87; 0.063 μM): 95.6%
- Survival rate (N87; 0.25 μM): 89.7%
- Survival rate (N87; 1 μM): 66.8%
- Survival rate (N87; 4 μM): 37.1%
- Survival rate ([2]; 0.016 μM): 98.6%
- Survival rate ([2]; 0.063 μM): 99.2%
- Survival rate ([2]; 0.25 μM): 95.5%
- Survival rate ([2]; 1 μM): 89.7%
- Survival rate ([2]; 4 μM): 65.6%
